Measured values published in PubChem BioAssay AID588643 (The Scripps Research Institute Molecular Screening Center, 2011).
Active and inactive are the calls of the source.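 The calls were made as follows: active = phospho-ERK protein band moved at least 30% up or down from the DMSO-only control band; inactive = the rest.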

Tests used:
[1] = system: HCT116 phospho-ERK1/2 western blot, 24 h; experiment: p-MAPK1 abundance shift in treated cells – cell-based, HCT116 colorectal carcinoma, chemiluminescent western blot, counter-screen for KLF5 inhibitor project, late-stage follow-up (AID 588643); conditions: measured here: phospho-ERK fold change vs DMSO; at 10 µM; stronger effect = lower value
[2] = target: Mitogen-activated protein kinase 1 (Homo sapiens) (UniProt P28482); experiment: as above; conditions: HCT116 phospho-ERK1/2 western blot, 24 h; at 10 µM; stronger effect = higher value

CN(C(=O)COC(=O)/C=C/c1cccc([N+](=O)[O-])c1)C1CCS(=O)(=O)C1 (configuration not stated) was tested, and the fold change [1] was 1.2 and the inhibition [2] was -20% (inactive).
